Consider three compounds from patent publication US8466088B2, “Herbicidal compositions containing benzoylpyrazole compounds” (Ishihara Sangyo Kaisha, Ltd., priority 2007, dated 2013).

The subject of one assay is crabgrass. The experiment in a line: Example 1: pot test, foliar treatment, visually observed growth inhibition of crabgrass. The assay is classed as in vivo. The following applies: Digitaria sanguinalis, foliar, read-out: Growth inhibition rate (%) of crabgrass, Measured value.
For a further assay, the system named is velvetleaf. The experiment in a line: Example 1: pot test, foliar treatment, visually observed growth inhibition of velvetleaf. The assay is classed as in vivo, Abutilon theophrasti MEDIC. The following applies: Abutilon theophrasti, foliar, read-out: Growth inhibition rate (%) of velvetleaf, Measured value.
The subject of another assay is various plants. Briefly: Example 1: pot test, foliar treatment, visually observed growth inhibition of other sown plants (Tables 5-1 to 5-137). The assay is classed as in vivo. As to conditions: foliar. An excerpt:
When the herbicidal activity in a case where two active ingredients are combined, is larger than the simple sum of the respective herbicidal activities of the two active ingredients (the expected activity), it is called a synergistic effect. The activity expected by the combination of two active ingredients can be calculated as follows (Colby S. R., “Weed”, vol. 15, p. 20-22, 1967). E=α+β−(α×β+100) where
α: growth inhibition rate when treated with x (g/ha) of herbicide X,
β: growth inhibition rate when treated with y (g/ha) of herbicide Y,
E: growth inhibition rate expected when treated with x (g/ha) of herbicide X and y (g/ha) of herbicide Y.
That is, when the actual growth inhibition rate (measured value) is larger than the growth inhibition rate by the above calculation (calculated value), the activity by the combination can be regarded as showing a synergistic effect.
Upland field soil was put into a 1/1,000,000 hectare pot, and seeds of various plants were sown. When the respective plants reached predetermined leaf stage, herbicidal compositions in predetermined amounts were diluted with water in an amount corresponding to 300 L/ha and applied for foliar treatment by a small sprayer.
On the 14th to 28th day after application, the state of growth of the respective plants was visually observed to determine the growth inhibition rate (measured value) in accordance with the following evaluation standard. Further, in accordance with the above Colby's formula, the growth inhibition rate (calculated value) was calculated. In Tables, with respect to the compound A, Compound Nos. in Table 1 or 3 are described, and with respect to other herbicidal compounds, common names are described.

Setting [1] is: 3.2 to 4.1 leaf stage, 21st day after application.
The mark [2] stands for this setting: 4.0 to 4.4 leaf stage, 22nd day after application.

Each structure is given as a SMILES string. Like-named read-outs stand apart in the source and are kept apart here.

`CCOCN(C(=O)CCl)c1c(C)cccc1CC` [Acetochlor]: in the assay with crabgrass (3.3 to 4.2 leaf stage, 24th day after application, 400 g/ha), the inhibition at 400 g/ha worked out at 0%. The inhibition at 600 g/ha in the assay on crabgrass (3.3 to 4.2 leaf stage, 24th day after application, 600 g/ha) is 0%. Moreover, the inhibition at 800 g/ha in the assay with crabgrass (3.3 to 4.2 leaf stage, 24th day after application, 800 g/ha) amounted to 0%. Besides, the inhibition at 1600 g/ha with crabgrass (3.3 to 4.2 leaf stage, 24th day after application, 1600 g/ha) worked out at 0%. The inhibition at 150 g/ha in the assay on velvetleaf (2.0 to 2.5 leaf stage, 21st day after application) was 0%; in the assay on velvetleaf (3.3 to 4.2 leaf stage, 22nd day after application) it was 0%; with various plants (Ipomoea, ivyleaf morningglory 1.5 to 2.1 leaf stage, 14th day after application, 150 g/ha, read-out: Growth inhibition rate (%) of ivyleaf morningglory, Measured value) it was 0%. The inhibition at 300 g/ha in the assay with velvetleaf (3.3 to 4.2 leaf stage, 22nd day after application, 300 g/ha) was 0%. Further, the inhibition at 100 g/ha with various plants (Ipomoea, ivyleaf morningglory 1.5 to 2.1 leaf stage, 14th day after application, 100 g/ha, read-out: Growth inhibition rate (%) of ivyleaf morningglory, Measured value) stood at 0%. Moreover, the inhibition at 200 g/ha in the assay with various plants (Ipomoea, ivyleaf morningglory 1.5 to 2.1 leaf stage, 14th day after application, 200 g/ha, read-out: Growth inhibition rate (%) of ivyleaf morningglory, Measured value) amounted to 0%.

Turning to `CCNc1nc(Cl)nc(NC(C)C)n1` [Atrazine, atrazine, reference compound], the inhibition at 175 g/ha in the assay with crabgrass (2.7 to 3.6 leaf stage, 21st day after application, 175 g/ha) was 0%; with velvetleaf (setting [1]) it was 3%; in the assay on velvetleaf (setting [2]) it was 20%. Further, the inhibition at 375 g/ha in the assay on crabgrass (2.7 to 3.6 leaf stage, 21st day after application) amounted to 20%; with crabgrass (3.1 to 4.0 leaf stage, 22nd day after application) it was 0%; with velvetleaf (setting [1]), 5%; in the assay with velvetleaf (setting [2]), 25%. Further, the inhibition at 125 g/ha in the assay with crabgrass (3.2 to 4.3 leaf stage, on the 22nd day after application, active ingredient amount 125 g/ha) was 0%; in the assay on crabgrass (4.0 to 4.5 leaf stage, 21st day after application, 125 g/ha), 10%; with crabgrass (4.3 to 4.5 leaf stage, 20th day after application, 125 g/ha) it was 0%; in the assay with velvetleaf (2.4 to 3.2 leaf stage, on the 22nd day after application, active ingredient amount 125 g/ha), 10%; with velvetleaf (3.0 to 3.5 leaf stage, 20th day after application, 125 g/ha) it was 0%; with velvetleaf (3.0 to 3.5 leaf stage, 21st day after application, 125 g/ha), 10%. The inhibition at 250 g/ha was determined as 0% in the assay with crabgrass (3.2 to 4.3 leaf stage, on the 22nd day after application, active ingredient amount 250 g/ha); 10% in the assay with crabgrass (4.0 to 4.5 leaf stage, 21st day after application, 250 g/ha); 0% in the assay on crabgrass (4.3 to 4.5 leaf stage, 20th day after application, 250 g/ha); 20% with velvetleaf (3.0 to 3.5 leaf stage, 21st day after application, 250 g/ha). Further, the inhibition at 150 g/ha came to 0% with crabgrass (3.8 to 4.4 leaf stage, 21st day after application, 150 g/ha); 0% in the assay on velvetleaf (3.0 to 3.8 leaf stage, 15th day after application); 60% in the assay with velvetleaf (3.2 to 5.0 leaf stage, 21st day after application); 0% in the assay with velvetleaf (3.5 to 4.3 leaf stage, 21st day after application). Also, the inhibition at 1000 g/ha with velvetleaf (2.8 to 3.6 leaf stage, 24th day after application, 1000 g/ha) came out at 15%. Also, the inhibition at 1500 g/ha in the assay with velvetleaf (2.8 to 3.6 leaf stage, 24th day after application, 1500 g/ha) was determined as 15%. In the assay with velvetleaf (2.8 to 3.6 leaf stage, 24th day after application, 2000 g/ha), the inhibition at 2000 g/ha worked out at 25%. Further, the inhibition at 31 g/ha with various plants (Ipomoea, ivyleaf morningglory 1.5 to 2.1 leaf stage, 23rd day after application, 31 g/ha, read-out: Growth inhibition rate (%) of ivyleaf morningglory, Measured value) came to 0%. Moreover, in the assay with various plants (Ipomoea, ivyleaf morningglory 1.5 to 2.1 leaf stage, 23rd day after application, 90 g/ha, read-out: Growth inhibition rate (%) of ivyleaf morningglory, Measured value), the inhibition at 90 g/ha came to 0%. Also, the inhibition at 180 g/ha in the assay with various plants (Ipomoea, ivyleaf morningglory 1.5 to 2.1 leaf stage, 23rd day after application, 180 g/ha, read-out: Growth inhibition rate (%) of ivyleaf morningglory, Measured value) was determined as 0%. In the assay on various plants (Ipomoea, ivyleaf morningglory 1.5 to 2.1 leaf stage, 23rd day after application, 500 g/ha, read-out: Growth inhibition rate (%) of ivyleaf morningglory, Measured value), the inhibition at 500 g/ha worked out at 83%.

Regarding `COc1cc(OC)nc(NC(=O)NS(=O)(=O)c2ncccc2C(=O)N(C)C)n1` [Nicosulfuron], the inhibition at 30 g/ha amounted to 92% in the assay with crabgrass (3.5 to 4.2 leaf stage, 20th day after application, 30 g/ha); 20% with velvetleaf (2.5 to 3.3 leaf stage, 21st day after application, 30 g/ha); 10% in the assay on various plants (prickly sida 2.1 to 3.1 leaf stage, 20th day after application, 30 g/ha, read-out: Growth inhibition rate (%) of prickly sida, Measured value). Also, the inhibition at 15 g/ha turned out to be 45% in the assay with crabgrass (3.8 to 4.4 leaf stage, 21st day after application); 40% in the assay with crabgrass (3.8 to 5.2 leaf stage, 21st day after application); 88% in the assay on crabgrass (4.3 to 4.5 leaf stage, 20th day after application); 45% in the assay with velvetleaf (3.0 to 3.5 leaf stage, 21st day after application); 10% in the assay on velvetleaf (3.0 to 3.8 leaf stage, 28th day after application). For the same compound, the inhibition at 10 g/ha with velvetleaf (2.5 to 3.3 leaf stage, 21st day after application, 10 g/ha) was 10%. In addition, the inhibition at 20 g/ha in the assay with velvetleaf (2.5 to 3.3 leaf stage, 21st day after application, 20 g/ha) was 20%; in the assay with various plants (prickly sida 2.1 to 3.1 leaf stage, 20th day after application, 20 g/ha, read-out: Growth inhibition rate (%) of prickly sida, Measured value) it was 0%. Also, the inhibition at 80 g/ha with velvetleaf (2.8 to 3.6 leaf stage, 24th day after application, 80 g/ha) was 60%. Moreover, the inhibition at 50 g/ha in the assay on velvetleaf (3.3 to 4.3 leaf stage, 20th day after application, 50 g/ha) came to 50%. The inhibition at 7 g/ha in the assay on various plants (prickly sida 2.1 to 3.1 leaf stage, 20th day after application, 7 g/ha, read-out: Growth inhibition rate (%) of prickly sida, Measured value) stood at 0%. Moreover, in the assay on various plants (prickly sida 2.1 to 3.1 leaf stage, 20th day after application, 60 g/ha, read-out: Growth inhibition rate (%) of prickly sida, Measured value), the inhibition at 60 g/ha turned out to be 55%.
